Experiments:
[1] = Margin of safety study versus 13-wk rat NOAEL; type: in vivo
From the text: Results from the margin of safety study of lactose/MgSt-based formulations of Compound I are shown below in Table 17.

[2] = system: fractional exhaled nitric oxide (FeNO); experiment: Phase 1 Part 2: FeNO reduction in ICS-naïve mild asthmatics; type: in vivo, human; conditions: for Mean placebo-corrected FeNO reduction: mild asthma ICS naïve
Procedure: A status summary of the phase 1 clinical trial recruitment is shown below in Table 18. Capsules filled with blend 2a were used to achieve a 0.6 mg target dose of Compound I (0.2 mg capsules×3). Capsules filled with blend 4 were used to achieve 2.0 mg, 4.0 mg, 6.0 mg, 8.0 mg, and 12.0 mg target doses of Compound I (2.0 mg capsule×1; 4.0 mg capsule×1; 2.0 mg capsules×3; 4.0 mg capsules×2; and 4.0 mg capsules×3, respectively). Twice daily dosing (BID) was achieved by repeating the preceding regime. For example, an 8.0 mg BID dosing regime is achieved by administering two doses of 4.0 mg capsules×2.
Particular FeNO reduction data from FIG. 5 is highlighted below in Table 19. For comparison, it is established that FeNO reductions greater than 20% are clinically significant (Am. J. Respir. Crit. Care Med. 2011, 184, 602).
(§1) Day 10 pharmacokinetic parameters for Parts 2 and 3 of Phase I are summarized below in Table 28. Part 2 involved the administration of 4 different dose regimens, to subjects with mild asthma naïve to ICS therapy, over a 10-day period. Each separate cohort comprised 6 subjects receiving active treatment with 2 receiving matching placebo. Blood samples were collected to enable the measurement of Compound I concentrations in plasma. The resultant data was used to determine the PK parameters at Day 10 representing the Day on which the final dose was received.

[3] = Phase 1 Part 2 plasma pharmacokinetics (mild asthma); type: in vivo, human; conditions: Day 10
From the text: as §1

[4] = 4.0 mg BID vs 13-week rat study

Cn1c(=O)n([C@H]2CCCN(C(=O)CC#N)C2)c2nc(-c3cnn4ccccc34)ccc21 [Compound I, (S)-3-(3-(1-methyl-2-oxo-5-(pyrazolo[1,5-a]pyridine-3-yl)-1H-imidazo[4,5-b]pyridine-3(2H)-yl)piperidin-1-yl)-3-oxopropanenitrile]
MoS versus inhalation toxicology study NOAELs, Lung exposure (mg/g lung) [1, 4]: 3925
MoS versus inhalation toxicology study NOAELs, Plasma (group mean AUC0-24) [1, 4]: 85.6
Group mean AUC0-24 MoS (Phase 1 clinical study versus inhalation tox study NOAELs) ([1]; 4.0 mg BID vs 13-wk rat NOAEL): 5.6
Lung dose of Compound I (mg/g) MoS ([1]; 4.0 mg BID vs 13-wk rat NOAEL, adjusted for respirability assuming 10%, 25% and 100% lung deposition in rat, NHP and human): 25
Pharmacological activity of dose regimen (FeNO) ([2]; 0.6 mg QD): minimally active dose
% subjects reporting Day 10 FeNO value <25 ppb ([2]; 0.6 mg QD (n = 6)): 16%
Mean placebo-corrected % FeNO reduction from day 1 pre-dose in ICS naïve mild asthmatics ([2]; 0.6 mg QD (n = 6), Day 10 + 3 hrs): −5.4%
Mean placebo-corrected % FeNO reduction from day 1 pre-dose in ICS naïve mild asthmatics ([2]; 0.6 mg QD (n = 6), Day 10 + 6 hrs): −6.7%
Mean placebo-corrected FeNO reduction ([2]; 0.6 mg QD, 3 capsules per dose): −7%
Mean placebo-corrected FeNO changes ([2]; 0.6 mg QD, Day 1 pre-dose to Day 10): < 20%
% subjects reporting Day 10 FeNO value <25 ppb ([2]; 2.0 mg QD (n = 6)): 16%
Mean placebo-corrected % FeNO reduction from day 1 pre-dose in ICS naïve mild asthmatics ([2]; 2.0 mg QD (n = 6), Day 10 + 3 hrs): −26.6%
Mean placebo-corrected % FeNO reduction from day 1 pre-dose in ICS naïve mild asthmatics ([2]; 2.0 mg QD (n = 6), Day 10 + 6 hrs): −24.0%
Mean placebo-corrected FeNO reduction ([2]; 2.0 mg QD, 1 capsule per dose): −24%
% subjects reporting Day 10 FeNO value <25 ppb ([2]; 4.0 mg BID (n = 6)): 67%
Mean placebo-corrected % FeNO reduction from day 1 pre-dose in ICS naïve mild asthmatics ([2]; 4.0 mg BID (n = 6), Day 10 + 3 hrs): −29.1%
Mean placebo-corrected % FeNO reduction from day 1 pre-dose in ICS naïve mild asthmatics ([2]; 4.0 mg BID (n = 6), Day 10 + 6 hrs): −30.6%
Mean placebo-corrected FeNO reduction ([2]; 4.0 mg BID, 1 capsule per dose): −26%
Mean placebo-corrected % FeNO reduction from Day 1 pre-dose ([2]; 4.0 mg BID, Day 10 + 3 hours): 29.1%
Mean placebo-corrected % FeNO reduction from Day 1 pre-dose ([2]; 4.0 mg BID, Day 10 + 6 hours): 30.6%
% subjects reporting Day 10 FeNO value <25 ppb ([2]; 8.0 mg BID (n = 6)): 50%
Mean placebo-corrected % FeNO reduction from day 1 pre-dose in ICS naïve mild asthmatics ([2]; 8.0 mg BID (n = 6), Day 10 + 3 hrs): −29.1%
Mean placebo-corrected % FeNO reduction from day 1 pre-dose in ICS naïve mild asthmatics ([2]; 8.0 mg BID (n = 6), Day 10 + 6 hrs): −25.9%
Pharmacological activity of dose regimens (FeNO) ([2]; dose regimens from 2 mg QD to 8 mg BID): pharmacologically active
AUC0-12 hours Max ([3]; 0.6 mg QD): 23,507 pg · h/ml
AUC0-12 hours Min ([3]; 0.6 mg QD): 7,596 pg · h/ml
AUC0-24 hours Max ([3]; 0.6 mg QD): 36,466 pg · h/ml
AUC0-24 hours Min ([3]; 0.6 mg QD): 8,579 pg · h/ml
AUC0-last non-zero Max ([3]; 0.6 mg QD): 47,928 pg · h/ml
AUC0-last non-zero Min ([3]; 0.6 mg QD): 8,579 pg · h/ml
AUC0-∞ Max ([3]; 0.6 mg QD): 52,842 pg · h/ml
AUC0-∞ Min ([3]; 0.6 mg QD): 8,783 pg · h/ml
AUCover dosing interval Max ([3]; 0.6 mg QD): 36,466 pg · h/ml
AUCover dosing interval Min ([3]; 0.6 mg QD): 8,579 pg · h/ml
Cmax Max ([3]; 0.6 mg QD): 2,750 pg/ml
Cmax Min ([3]; 0.6 mg QD): 1,020 pg/ml
Ctrough Geometric mean ([3]; 0.6 mg QD): 0.234 ng/mL
Ctrough Max ([3]; 0.6 mg QD): 913 pg/mL
Ctrough Mean ([3]; 0.6 mg QD): 0.362 ng/mL
Ctrough Min ([3]; 0.6 mg QD): 0.034 ng/mL
AUC0-12 hours Max ([3]; 2 mg QD): 88,203 pg · h/ml
AUC0-12 hours Min ([3]; 2 mg QD): 30,807 pg · h/ml
AUC0-24 hours Max ([3]; 2 mg QD): 125,837 pg · h/ml
AUC0-24 hours Min ([3]; 2 mg QD): 42,693 pg · h/ml
AUC0-last non-zero Max ([3]; 2 mg QD): 143,585 pg · h/ml
AUC0-last non-zero Min ([3]; 2 mg QD): 48,931 pg · h/ml
AUC0-∞ Max ([3]; 2 mg QD): 145,552 pg · h/ml
AUC0-∞ Min ([3]; 2 mg QD): 50,025 pg · h/ml
AUCover dosing interval Max ([3]; 2 mg QD): 125,837 pg · h/ml
AUCover dosing interval Min ([3]; 2 mg QD): 42,693 pg · h/ml
Cmax Max ([3]; 2 mg QD): 9,630 pg/ml
Cmax Min ([3]; 2 mg QD): 4,160 pg/ml
Ctrough Geometric mean ([3]; 2 mg QD): 0.929 ng/mL
Ctrough Max ([3]; 2 mg QD): 1,370 pg/ml
Ctrough Mean ([3]; 2 mg QD): 0.97 ng/mL
Ctrough Min ([3]; 2 mg QD): 0.536 ng/mL
AUC0-12 hours Max ([3]; 4 mg BID): 373,995 pg · h/ml
AUC0-12 hours Min ([3]; 4 mg BID): 39,111 pg · h/ml
AUC0-24 hours Max ([3]; 4 mg BID): 473,634 pg · h/ml
AUC0-24 hours Min ([3]; 4 mg BID): 43,350 pg · h/ml
AUC0-last non-zero Max ([3]; 4 mg BID): 586,513 pg · h/ml
AUC0-last non-zero Min ([3]; 4 mg BID): 43,356 pg · h/ml
AUC0-∞ Max ([3]; 4 mg BID): 587,424 pg · h/ml
AUC0-∞ Min ([3]; 4 mg BID): 44,654 pg · h/ml
AUCover dosing interval Max ([3]; 4 mg BID): 373,995 pg · h/ml
AUCover dosing interval Min ([3]; 4 mg BID): 39,111 pg · h/ml
Cmax Max ([3]; 4 mg BID): 47,800 pg/ml
Cmax Min ([3]; 4 mg BID): 7,750 pg/ml

Reference: US20240261224A1, “FORMULATION OF A PAN-JAK INHIBITOR” (KINASET THERAPEUTICS, INC., priority 2022, published 2024)
